Assay results reported in patent US9113629B2, “4-amino-6-(4-substituted-phenyl)-picolinates and 6-amino-2-(4-substituted-phenyl)-pyrimidine-4-carboxylates and their use as herbicides” (DOW AGROSCIENCES LLC, priority 2013, dated 2015).
Read-outs that look alike come from different tables or passages of the source.

What was measured:
[1] = system: Key Broadleaf Weed and Crop Species; test: Post-emergent Test II herbicidal activity (Table 5); format: in vivo; conditions: post-emergence, 336 h, post-emergent, 14 days after application; for pest or weed control at 140 g/ha: 140 g ai/ha; for pest or weed control at 70 g/ha: 70 g ai/ha
Description: (§1) Post-emergent Test II: Seeds or nutlets of the desired test plant species were planted in Sun Gro Metro-Mix® 360 planting mixture, which typically has a pH of 6.0 to 6.8 and an organic matter content of about 30 percent, in plastic pots with a surface area of 64 square centimeters. When required to ensure good germination and healthy plants, a fungicide treatment and/or other chemical or physical treatment was applied. The plants were grown for 7-21 d in a greenhouse with an approximate 15 h photoperiod which was maintained at about 23-29° C. during the day and 22-28° C. during the night. Nutrients and water were added on a regular basis and supplemental lighting was provided with overhead metal halide 1000-Watt lamps as necessary. The plants were employed for testing when they reached the first or second true leaf stage.
(§2) A weighed amount, determined by the highest rate to be tested, of each test compound was placed in a 25 mL glass vial and was dissolved in 4 mL of a 97:3 v/v mixture of acetone and DMSO to obtain concentrated stock solutions. […] The concentrated stock solutions obtained were diluted with 20 mL of an aqueous mixture containing acetone, water, isopropyl alcohol, DMSO. Atplus 411F crop oil concentrate, and Triton® X-155 surfactant in a 48.5:39:10:1.5:1.0:0.02 v/v ratio to obtain spray solutions containing the highest application rates. Additional application rates were obtained by serial dilution of 12 mL of the high rate solution into a solution containing 2 mL of 97:3 v/v mixture of acetone and DMSO and 10 mL of an aqueous mixture containing acetone, water, isopropyl alcohol, DMSO, Atplus 411F crop oil concentrate, and Triton X-155 surfactant in a 48.5:39:10:1.5:1.0:0.02 v/v ratio to obtain ½×, ¼×, ⅛× and 1/16× rates of the high rate. Compound requirements are based upon a 12 mL application volume at a rate of 187 liters per hectare (L/ha). Formulated compounds were applied to the plant material with an overhead Mandel track sprayer equipped with 8002E nozzles calibrated to deliver 187 L/ha over an application area of 0.503 square meters at a spray height of 18 inches (43 cm) above the average plant canopy height. Control plants were sprayed in the same manner with the solvent blank.
(§3) The treated plants and control plants were placed in a greenhouse as described above and watered by subirrigation to prevent wash-off of the test compounds. After 14 d, the condition of the test plants as compared with that of the untreated plants was determined visually and scored on a scale of 0 to 100 percent where 0 corresponds to no injury and 100 corresponds to complete kill.

[2] = system: Key Grass and Sedge Weeds as well as Grass Crops; test: Post-emergent Test II herbicidal activity (Table 6); format: in vivo; conditions: post-emergence, 336 h; for pest or weed control at 140 g/ha: application rate 140 g ai/ha; for pest or weed control at 70 g/ha: application rate 70 g ai/ha
Description: as §1, §2, §3

[3] = ABUTH: velvetleaf (Abutilon theophrasti), read-out: Visual Growth Reduction (%) 14 Days After Application ABUTH
[4] = BRSNN: oilseed-rape, canola (Brassica napus), read-out: Visual Growth Reduction (%) 14 Days After Application BRSNN
[5] = CHEAL: lambsquarters (Chenopodium album), read-out: Visual Growth Reduction (%) 14 Days After Application CHEAL
[6] = EPHHL: wild poinsettia (Euphorbia heterophylla), read-out: Visual Growth Reduction (%) 14 Days After Application EPHHL
[7] = HELAN: sunflower (Helianthus annuus), read-out: Visual Growth Reduction (%) 14 Days After Application HELAN
[8] = VIOTR: wild pansy (Viola tricolor), read-out: Visual Growth Reduction (%) 14 Days After Application VIOTR
[9] = CYPES: yellow nutsedge (Cyperus esculentus), read-out: Visual Growth Reduction (%) 14 Days After Application, CYPES
[10] = DIGSA: crabgrass (Digitaria sanguinalis), read-out: Visual Growth Reduction (%) 14 Days After Application, DIGSA
[11] = ECHCG: barnyardgrass (Echinochloa crus-galli), read-out: Visual Growth Reduction (%) 14 Days After Application, ECHCG
[12] = ORYSA: rice (Oryza sativa), read-out: Visual Growth Reduction (%) 14 Days After Application, ORYSA
[13] = SETFA: giant foxtail (Setaria faberi), read-out: Visual Growth Reduction (%) 14 Days After Application, SETFA
[14] = SORVU: grain sorghum (Sorghum vulgare), read-out: Visual Growth Reduction (%) 14 Days After Application, SORVU
[15] = ZEAMX: maize, corn (Zea mays), read-out: Visual Growth Reduction (%) 14 Days After Application, ZEAMX
[16] = TRZSS (wheat, Triticum aestivum), read-out: Visual Growth Reduction (%) 14 Days After Application, TRZSS

Row | SMILES | melting point | pest or weed control at 140 g/ha [1, 3] | pest or weed control at 140 g/ha [1, 4] | pest or weed control at 140 g/ha [1, 5] | pest or weed control at 140 g/ha [1, 6] | pest or weed control at 140 g/ha [1, 7] | pest or weed control at 140 g/ha [1, 8] | pest or weed control at 140 g/ha [2, 9] | pest or weed control at 140 g/ha [2, 10] | pest or weed control at 140 g/ha [2, 11] | pest or weed control at 140 g/ha [2, 12] | pest or weed control at 140 g/ha [2, 13] | pest or weed control at 140 g/ha [2, 14] | pest or weed control at 140 g/ha [2, 15] | also measured
1 | Nc1c(Cl)c(C(=O)O)nc(-c2ccc(OC(F)(F)F)cc2)c1Cl [Compound 105] | 141.9 to 143.1 °C | 0 to 29% | 0 to 29% | 0 to 29% | 0 to 29% | 95 to 100% | 0 to 29% | 0 to 29% | 0 to 29% | 0 to 29% | 0 to 29% | 0 to 29% | 0 to 29% | 0 to 29% | pest or weed control at 140 g/ha ([1]; AMARE: redroot pigweed (Amaranthus retroflexus), read-out: Visual Growth Reduction (%) 14 Days After Application AMARE): 0 to 29%; pest or weed control at 140 g/ha ([2]; Triticum aestivum, TRZSS (wheat), read-out: Visual Growth Reduction (%) 14 Days After Application, TRZSS): 0 to 29%
2 | Cc1c(-c2ccc(I)c(F)c2)nc(C(=O)O)c(Cl)c1N [Compound 87, 4-Amino-3-chloro-6-(3-fluoro-4-iodophenyl)-5-methylpicolinic acid] | 171 to 172 °C | 85 to 94% | 95 to 100% | 85 to 94% | 0 to 29% | 85 to 94% | 85 to 94% | 45 to 59% | 60 to 74% | 75 to 84% | 0 to 29% | 75 to 84% | 60 to 74% | 60 to 74% | pest or weed control at 70 g/ha [1, 3]: 85 to 94%; pest or weed control at 70 g/ha [1, 4]: 95 to 100%; pest or weed control at 70 g/ha [1, 5]: 85 to 94%; pest or weed control at 70 g/ha [1, 6]: 0 to 29%; pest or weed control at 70 g/ha [1, 7]: 85 to 94%; pest or weed control at 70 g/ha [1, 8]: 60 to 74%; pest or weed control at 70 g/ha [2, 9]: 0 to 29%; pest or weed control at 70 g/ha [2, 10]: 60 to 74%; pest or weed control at 70 g/ha [2, 11]: 75 to 84%; pest or weed control at 70 g/ha [2, 12]: 0 to 29%; pest or weed control at 70 g/ha [2, 13]: 60 to 74%; pest or weed control at 70 g/ha [2, 14]: 60 to 74%; pest or weed control at 70 g/ha [2, 16]: 60 to 74%; pest or weed control at 140 g/ha [2, 16]: 60 to 74%; pest or weed control at 70 g/ha [2, 15]: 60 to 74%
